Data: the NIST ThermoML archive (doi:10.1016/j.jct.2011.07.018)

Experiments:
[1] = excess molar enthalpy (molar enthalpy of mixing); xn = mol fraction of the nth substance listed; conditions: 298.15 K, 101 kPa, Liquid, isothermal titration calorimeter
[2] = 298.15 K; 101.33 kPa; Liquid; Vibrating tube method

CCCCCCC(C)=O [2-octanone] + CCCCCCO
[1]
Conditions	excess molar enthalpy [kJ/mol]
x2 = 0.021	0.115
x2 = 0.041	0.217
x2 = 0.06	0.31
x2 = 0.079	0.393
x2 = 0.097	0.469
x2 = 0.114	0.538
x2 = 0.13	0.599
x2 = 0.146	0.655
x2 = 0.164	0.714
x2 = 0.181	0.767
x2 = 0.197	0.816
x2 = 0.213	0.858
x2 = 0.228	0.897
x2 = 0.242	0.932
x2 = 0.259	0.969
x2 = 0.275	1
x2 = 0.29	1.03
x2 = 0.304	1.06
x2 = 0.314	1.08
x2 = 0.322	1.09
x2 = 0.331	1.1
x2 = 0.339	1.12
x2 = 0.349	1.13
x2 = 0.359	1.14
x2 = 0.367	1.15
x2 = 0.376	1.16
x2 = 0.385	1.17
x2 = 0.394	1.18
x2 = 0.405	1.19
x2 = 0.415	1.2
x2 = 0.426	1.2
x2 = 0.438	1.21
x2 = 0.448	1.21
x2 = 0.458	1.22
x2 = 0.469	1.22
x2 = 0.48	1.22
x2 = 0.492	1.22
x2 = 0.504	1.22
x2 = 0.517	1.22
x2 = 0.531	1.22
x2 = 0.542	1.21
x2 = 0.554	1.21
x2 = 0.566	1.2
x2 = 0.58	1.19
x2 = 0.593	1.18
x2 = 0.608	1.17
x2 = 0.623	1.15
x2 = 0.638	1.13
x2 = 0.652	1.11
x2 = 0.667	1.09
x2 = 0.682	1.07
x2 = 0.698	1.04
x2 = 0.714	1.01
x2 = 0.731	0.974
x2 = 0.746	0.942
x2 = 0.762	0.906
x2 = 0.778	0.866
x2 = 0.795	0.822
x2 = 0.812	0.772
x2 = 0.83	0.717
x2 = 0.85	0.655
x2 = 0.866	0.599
x2 = 0.879	0.538
x2 = 0.897	0.47
x2 = 0.916	0.395
x2 = 0.936	0.312
x2 = 0.956	0.22
x2 = 0.978	0.116

CN(C)C=O [dimethylformamide]
Conditions	mass density [kg/m3]
[2]	944.34

CCCCCCCCO [octan-1-ol]
Conditions	mass density [kg/m3]
[2]	821.67

CCCCCC(=O)O [hexanoic acid]
Conditions	mass density [kg/m3]
[2]	922.06

CCCCCCC(C)=O [2-octanone]
Conditions	mass density [kg/m3]
[2]	814.32

CCCCCCCC(=O)O [octanoic acid]
Conditions	mass density [kg/m3]
[2]	906.02

CCCCCCC(C)=O [2-octanone] + CCCCCCCCO
[1]
Conditions	excess molar enthalpy [kJ/mol]
x2 = 0.015	0.091
x2 = 0.03	0.178
x2 = 0.045	0.259
x2 = 0.059	0.332
x2 = 0.072	0.402
x2 = 0.085	0.466
x2 = 0.098	0.526
x2 = 0.111	0.582
x2 = 0.124	0.638
x2 = 0.137	0.691
x2 = 0.15	0.74
x2 = 0.162	0.785
x2 = 0.174	0.826
x2 = 0.186	0.864
x2 = 0.197	0.9
x2 = 0.206	0.955
x2 = 0.212	0.973
x2 = 0.218	0.991
x2 = 0.225	1.01
x2 = 0.232	1.03
x2 = 0.24	1.05
x2 = 0.248	1.07
x2 = 0.256	1.09
x2 = 0.266	1.11
x2 = 0.276	1.14
x2 = 0.283	1.15
x2 = 0.291	1.17
x2 = 0.299	1.18
x2 = 0.308	1.2
x2 = 0.317	1.21
x2 = 0.327	1.23
x2 = 0.337	1.25
x2 = 0.348	1.26
x2 = 0.36	1.27
x2 = 0.373	1.29
x2 = 0.383	1.3
x2 = 0.393	1.31
x2 = 0.404	1.32
x2 = 0.415	1.32
x2 = 0.428	1.33
x2 = 0.44	1.34
x2 = 0.454	1.34
x2 = 0.469	1.35
x2 = 0.484	1.35
x2 = 0.496	1.34
x2 = 0.509	1.34
x2 = 0.523	1.34
x2 = 0.537	1.33
x2 = 0.552	1.32
x2 = 0.567	1.31
x2 = 0.587	1.3
x2 = 0.602	1.28
x2 = 0.62	1.26
x2 = 0.64	1.23
x2 = 0.657	1.2
x2 = 0.674	1.17
x2 = 0.692	1.14
x2 = 0.711	1.1
x2 = 0.731	1.05
x2 = 0.752	1
x2 = 0.775	0.945
x2 = 0.799	0.875
x2 = 0.82	0.81
x2 = 0.841	0.736
x2 = 0.864	0.652
x2 = 0.888	0.557
x2 = 0.914	0.446
x2 = 0.941	0.319
x2 = 0.97	0.172

CCCCCC(=O)O [hexanoic acid] + CN(C)C=O
[1]
Conditions	excess molar enthalpy [kJ/mol]
x2 = 0.048	-0.241
x2 = 0.092	-0.459
x2 = 0.132	-0.659
x2 = 0.169	-0.845
x2 = 0.203	-1.02
x2 = 0.24	-1.2
x2 = 0.274	-1.37
x2 = 0.304	-1.52
x2 = 0.333	-1.65
x2 = 0.359	-1.76
x2 = 0.383	-1.85
x2 = 0.412	-1.95
x2 = 0.439	-2.03
x2 = 0.464	-2.08
x2 = 0.486	-2.11
x2 = 0.502	-2.12
x2 = 0.516	-2.12
x2 = 0.53	-2.11
x2 = 0.543	-2.1
x2 = 0.556	-2.09
x2 = 0.568	-2.07
x2 = 0.579	-2.04
x2 = 0.589	-2.02
x2 = 0.602	-1.99
x2 = 0.613	-1.95
x2 = 0.625	-1.92
x2 = 0.635	-1.88
x2 = 0.645	-1.84
x2 = 0.656	-1.8
x2 = 0.666	-1.76
x2 = 0.676	-1.71
x2 = 0.685	-1.67
x2 = 0.694	-1.63
x2 = 0.702	-1.59
x2 = 0.71	-1.55
x2 = 0.718	-1.52
x2 = 0.726	-1.47
x2 = 0.735	-1.43
x2 = 0.743	-1.39
x2 = 0.75	-1.35
x2 = 0.757	-1.31
x2 = 0.764	-1.28
x2 = 0.77	-1.25
x2 = 0.776	-1.22
x2 = 0.782	-1.18
x2 = 0.789	-1.15
x2 = 0.794	-1.12
x2 = 0.799	-1.09
x2 = 0.812	-1.01
x2 = 0.824	-0.944
x2 = 0.836	-0.879
x2 = 0.849	-0.81
x2 = 0.862	-0.74
x2 = 0.875	-0.667
x2 = 0.889	-0.593
x2 = 0.903	-0.517
x2 = 0.916	-0.448
x2 = 0.929	-0.379
x2 = 0.942	-0.308
x2 = 0.956	-0.233
x2 = 0.97	-0.156
x2 = 0.985	-0.078

CCCCCC(=O)O [hexanoic acid] + C[S+](C)[O-]
[1]
Conditions	excess molar enthalpy [kJ/mol]
x2 = 0.042	-0.2
x2 = 0.081	-0.403
x2 = 0.117	-0.601
x2 = 0.15	-0.792
x2 = 0.181	-0.976
x2 = 0.209	-1.15
x2 = 0.241	-1.35
x2 = 0.271	-1.53
x2 = 0.298	-1.7
x2 = 0.323	-1.85
x2 = 0.346	-1.98
x2 = 0.369	-2.1
x2 = 0.38	-2.15
x2 = 0.388	-2.19
x2 = 0.397	-2.23
x2 = 0.406	-2.27
x2 = 0.415	-2.3
x2 = 0.425	-2.33
x2 = 0.436	-2.36
x2 = 0.447	-2.39
x2 = 0.457	-2.41
x2 = 0.467	-2.42
x2 = 0.477	-2.43
x2 = 0.488	-2.44
x2 = 0.498	-2.43
x2 = 0.508	-2.43
x2 = 0.519	-2.41
x2 = 0.53	-2.39
x2 = 0.541	-2.36
x2 = 0.553	-2.33
x2 = 0.563	-2.29
x2 = 0.574	-2.25
x2 = 0.585	-2.2
x2 = 0.596	-2.14
x2 = 0.608	-2.08
x2 = 0.62	-2.02
x2 = 0.631	-1.96
x2 = 0.642	-1.89
x2 = 0.653	-1.82
x2 = 0.665	-1.75
x2 = 0.677	-1.68
x2 = 0.69	-1.6
x2 = 0.701	-1.53
x2 = 0.712	-1.46
x2 = 0.724	-1.39
x2 = 0.736	-1.31
x2 = 0.748	-1.24
x2 = 0.761	-1.16
x2 = 0.772	-1.09
x2 = 0.784	-1.02
x2 = 0.796	-0.951
x2 = 0.808	-0.876
x2 = 0.821	-0.803
x2 = 0.834	-0.73
x2 = 0.846	-0.664
x2 = 0.858	-0.6
x2 = 0.87	-0.535
x2 = 0.883	-0.47
x2 = 0.896	-0.406
x2 = 0.91	-0.353
x2 = 0.922	-0.289
x2 = 0.934	-0.236
x2 = 0.943	-0.185
x2 = 0.959	-0.135
x2 = 0.973	-0.087
x2 = 0.986	-0.042

C[S+](C)[O-] [dimethyl sulfoxide]
Conditions	mass density [kg/m3]
[2]	1095.32

CCCCCCO [hexan-1-ol]
Conditions	mass density [kg/m3]
[2]	815.21

CCCCCC(=O)O [hexanoic acid] + CCCCCCO
[1]
Conditions	excess molar enthalpy [kJ/mol]
x2 = 0.025	0.097
x2 = 0.048	0.177
x2 = 0.07	0.245
x2 = 0.091	0.302
x2 = 0.112	0.352
x2 = 0.131	0.394
x2 = 0.154	0.442
x2 = 0.176	0.482
x2 = 0.198	0.514
x2 = 0.218	0.54
x2 = 0.238	0.562
x2 = 0.256	0.58
x2 = 0.268	0.598
x2 = 0.277	0.606
x2 = 0.287	0.614
x2 = 0.298	0.622
x2 = 0.309	0.629
x2 = 0.321	0.635
x2 = 0.335	0.641
x2 = 0.349	0.647
x2 = 0.365	0.652
x2 = 0.377	0.653
x2 = 0.39	0.653
x2 = 0.404	0.654
x2 = 0.419	0.653
x2 = 0.435	0.651
x2 = 0.452	0.647
x2 = 0.47	0.641
x2 = 0.491	0.631
x2 = 0.506	0.624
x2 = 0.523	0.614
x2 = 0.54	0.602
x2 = 0.559	0.588
x2 = 0.579	0.572
x2 = 0.601	0.553
x2 = 0.624	0.53
x2 = 0.649	0.505
x2 = 0.669	0.482
x2 = 0.691	0.458
x2 = 0.714	0.431
x2 = 0.738	0.4
x2 = 0.765	0.365
x2 = 0.793	0.328
x2 = 0.817	0.293
x2 = 0.843	0.255
x2 = 0.87	0.214
x2 = 0.899	0.169
x2 = 0.931	0.114
x2 = 0.964	0.059

CCCCCCCC(=O)O [octanoic acid] + CCCCCCO
[1]
Conditions	excess molar enthalpy [kJ/mol]
x2 = 0.038	0.156
x2 = 0.074	0.272
x2 = 0.106	0.363
x2 = 0.137	0.438
x2 = 0.167	0.501
x2 = 0.18	0.552
x2 = 0.186	0.564
x2 = 0.193	0.576
x2 = 0.201	0.589
x2 = 0.209	0.602
x2 = 0.218	0.616
x2 = 0.228	0.63
x2 = 0.239	0.643
x2 = 0.251	0.656
x2 = 0.261	0.668
x2 = 0.273	0.679
x2 = 0.286	0.689
x2 = 0.3	0.699
x2 = 0.31	0.706
x2 = 0.322	0.713
x2 = 0.334	0.72
x2 = 0.347	0.725
x2 = 0.361	0.73
x2 = 0.377	0.733
x2 = 0.394	0.736
x2 = 0.407	0.735
x2 = 0.422	0.734
x2 = 0.437	0.732
x2 = 0.454	0.728
x2 = 0.472	0.722
x2 = 0.492	0.714
x2 = 0.508	0.705
x2 = 0.526	0.694
x2 = 0.544	0.68
x2 = 0.564	0.663
x2 = 0.586	0.643
x2 = 0.607	0.621
x2 = 0.629	0.599
x2 = 0.65	0.574
x2 = 0.672	0.545
x2 = 0.696	0.514
x2 = 0.722	0.477
x2 = 0.749	0.44
x2 = 0.773	0.404
x2 = 0.798	0.365
x2 = 0.825	0.32
x2 = 0.853	0.27
x2 = 0.884	0.221
x2 = 0.91	0.171
x2 = 0.938	0.118
x2 = 0.968	0.061
